Here are results for one molecule from publication PMC2785482, “Combined Bezafibrate and Medroxyprogesterone Acetate: Potential Novel Therapy for Acute Myeloid Leukaemia” (PLoS ONE, 2009).

Each structure is given as a SMILES string.

This test addresses T1, AKR1C3 (Homo sapiens, UniProt P42330).
T1 construct: Recombinant N-terminal His-tagged AKR1C3
As to the kind of experiment: recombinant AKR1C3 phenanthrenequinone reduction, NADPH absorbance at […] nm. In kind it is biochemical.

T1 sequence (P42330 whole entry): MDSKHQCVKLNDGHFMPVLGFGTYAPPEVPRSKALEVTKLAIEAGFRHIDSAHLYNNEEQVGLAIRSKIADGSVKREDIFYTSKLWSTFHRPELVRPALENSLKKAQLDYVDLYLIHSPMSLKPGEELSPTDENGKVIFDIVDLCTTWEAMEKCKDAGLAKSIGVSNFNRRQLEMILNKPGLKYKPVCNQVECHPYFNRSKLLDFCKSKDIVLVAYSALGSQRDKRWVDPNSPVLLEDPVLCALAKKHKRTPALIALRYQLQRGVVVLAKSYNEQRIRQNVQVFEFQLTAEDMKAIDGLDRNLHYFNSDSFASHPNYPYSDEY

What is called IC50 is the concentration that inhibits the measured activity by half. On to `CC(=O)O[C@]1(C(C)=O)CC[C@H]2[C@@H]3C[C@H](C)C4=CC(=O)CC[C@]4(C)[C@H]3CC[C@@]21C` [MPA, medroxyprogesterone acetate], for which the IC50 turned out to be 1100 nM.
